Data published in PubChem BioAssay AID1963841 (Molecular Pharmacology Branch, DTP, NCI, 2024).

System: 439559-082-T-J2-PDC spheroid viability
Experiment: Anticancer human tumor 439559-082-T-J2-PDC patient-derived colon adenocarcinoma cell line growth inhibition [POLQ]
Settings: spheroids with HUVEC and MSC; for IC50: curve of first compound; for viability, T/C: stronger effect = lower value
In short: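 Complex spheroid viability model combining PDC tumour cells with endothelial (HUVEC) and MSC stromal cells. Novobiocin, ART-558 or RP6685 were tested singly and in combination with standard and investigational anticancer drugs. Each was titrated in half-log steps from near clinical Cmax, or from 10 microM where Cmax was unknown.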

[1] = second compound 0.0316 µM, first compound 0.0316 µM
[2] = second compound 0.0316 µM, first compound 0.1 µM
[3] = second compound 0.0316 µM, first compound 0.316 µM
[4] = second compound 0.0316 µM, first compound 1 µM
[5] = second compound 0.0316 µM, first compound 3.16 µM
[6] = second compound 0.0316 µM, first compound 10 µM
[7] = second compound 0.1 µM, first compound 0.0316 µM
[8] = second compound 0.1 µM, first compound 0.1 µM
[9] = second compound 0.1 µM, first compound 0.316 µM
[10] = second compound 0.1 µM, first compound 1 µM
[11] = second compound 0.1 µM, first compound 3.16 µM
[12] = second compound 0.1 µM, first compound 10 µM
[13] = second compound 0.316 µM, first compound 0.0316 µM
[14] = second compound 0.316 µM, first compound 0.1 µM
[15] = second compound 0.316 µM, first compound 0.316 µM
[16] = second compound 0.316 µM, first compound 1 µM
[17] = second compound 0.316 µM, first compound 3.16 µM
[18] = second compound 0.316 µM, first compound 10 µM
[19] = second compound 1 µM, first compound 0.0316 µM
[20] = second compound 1 µM, first compound 0.1 µM
[21] = second compound 1 µM, first compound 0.316 µM
[22] = second compound 1 µM, first compound 1 µM
[23] = second compound 1 µM, first compound 3.16 µM
[24] = second compound 1 µM, first compound 10 µM
[25] = second compound 3.16 µM, first compound 0.0316 µM
[26] = second compound 3.16 µM, first compound 0.1 µM
[27] = second compound 3.16 µM, first compound 0.316 µM
[28] = second compound 3.16 µM, first compound 1 µM
[29] = second compound 3.16 µM, first compound 3.16 µM
[30] = second compound 3.16 µM, first compound 10 µM
[31] = second compound 10 µM, first compound 0.0316 µM
[32] = second compound 10 µM, first compound 0.1 µM
[33] = second compound 10 µM, first compound 0.316 µM
[34] = second compound 10 µM, first compound 1 µM
[35] = second compound 10 µM, first compound 3.16 µM
[36] = second compound 10 µM, first compound 10 µM
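Also: spheroids exposed to compounds for seven days before readout.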
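For viability, T/C in this document: 100% = DMSO vehicle control viability.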

## CC(C)n1c(=O)n(C)c2cnc3cc(F)c(-c4ccc(OCCCN5CCCCC5)nc4)cc3c21 + COC1C(OC(N)=O)C(O)C(Oc2ccc3c(O)c(NC(=O)c4ccc(O)c(CC=C(C)C)c4)c(=O)oc3c2C)OC1(C)C
Second compound 0.0316 µM
  IC50: > 10 µM
Second compound 0.1 µM
  IC50: > 10 µM
Second compound 0.316 µM
  IC50: > 10 µM
Second compound 1 µM
  IC50: > 10 µM
Second compound 3.16 µM
  IC50: > 10 µM
Second compound 10 µM
  IC50: > 10 µM
[1]
  viability, T/C: 97.8%
[2]
  viability, T/C: 102%
[3]
  viability, T/C: 109%
[4]
  viability, T/C: 116%
[5]
  viability, T/C: 113%
[6]
  viability, T/C: 102%
[7]
  viability, T/C: 111%
[8]
  viability, T/C: 109%
[9]
  viability, T/C: 110%
[10]
  viability, T/C: 119%
[11]
  viability, T/C: 102%
[12]
  viability, T/C: 99.4%
[13]
  viability, T/C: 119%
[14]
  viability, T/C: 109%
[15]
  viability, T/C: 109%
[16]
  viability, T/C: 112%
[17]
  viability, T/C: 107%
[18]
  viability, T/C: 91.2%
[19]
  viability, T/C: 110%
[20]
  viability, T/C: 111%
[21]
  viability, T/C: 111%
[22]
  viability, T/C: 109%
[23]
  viability, T/C: 110%
[24]
  viability, T/C: 95%
[25]
  viability, T/C: 105%
[26]
  viability, T/C: 107%
[27]
  viability, T/C: 106%
[28]
  viability, T/C: 112%
[29]
  viability, T/C: 111%
[30]
  viability, T/C: 97.6%
[31]
  viability, T/C: 103%
[32]
  viability, T/C: 96.9%
[33]
  viability, T/C: 106%
[34]
  viability, T/C: 106%
[35]
  viability, T/C: 113%
[36]
  viability, T/C: 102%

## COc1cc2cc(C(=O)CCC(=O)O)sc2cc1OC + Cc1cccc(N(C)C(=O)C2C(O)CCN2c2nc(C)cc(C(F)(F)F)c2C#N)c1
Second compound 0.0316 µM
  IC50: > 10 µM
Second compound 0.1 µM
  IC50: > 10 µM
Second compound 0.316 µM
  IC50: > 10 µM
Second compound 1 µM
  IC50: > 10 µM
Second compound 3.16 µM
  IC50: > 10 µM
Second compound 10 µM
  IC50: > 10 µM
[1]
  viability, T/C: 104%
[2]
  viability, T/C: 92.7%
[3]
  viability, T/C: 95.1%
[4]
  viability, T/C: 101%
[5]
  viability, T/C: 100%
[6]
  viability, T/C: 84.8%
[7]
  viability, T/C: 107%
[8]
  viability, T/C: 101%
[9]
  viability, T/C: 105%
[10]
  viability, T/C: 99%
[11]
  viability, T/C: 91.7%
[12]
  viability, T/C: 94.2%
[13]
  viability, T/C: 99.5%
[14]
  viability, T/C: 112%
[15]
  viability, T/C: 86.7%
[16]
  viability, T/C: 108%
[17]
  viability, T/C: 106%
[18]
  viability, T/C: 95.9%
[19]
  viability, T/C: 107%
[20]
  viability, T/C: 107%
[21]
  viability, T/C: 96.2%
[22]
  viability, T/C: 96.5%
[23]
  viability, T/C: 104%
[24]
  viability, T/C: 88.5%
[25]
  viability, T/C: 112%
[26]
  viability, T/C: 97.7%
[27]
  viability, T/C: 105%
[28]
  viability, T/C: 87.4%
[29]
  viability, T/C: 110%
[30]
  viability, T/C: 94.9%
[31]
  viability, T/C: 99%
[32]
  viability, T/C: 107%
[33]
  viability, T/C: 101%
[34]
  viability, T/C: 90.9%
[35]
  viability, T/C: 100%
[36]
  viability, T/C: 87.3%

## Cn1ncnc1[C@H]1c2n[nH]c(=O)c3cc(F)cc(c23)N[C@@H]1c1ccc(F)cc1 + Nc1ccc(C#CCN(C(=O)Cc2ncc(C(F)(F)F)cc2C(F)(F)F)c2ccc(F)cc2)nn1
Second compound 0.0316 µM
  IC50: > 0.1 µM
Second compound 0.1 µM
  IC50: > 0.1 µM
Second compound 0.316 µM
  IC50: > 0.1 µM
Second compound 1 µM
  IC50: > 0.1 µM
Second compound 3.16 µM
  IC50: > 0.1 µM
Second compound 10 µM
  IC50: > 0.1 µM
Second compound 0.0316 µM, first compound 0.000316 µM
  viability, T/C: 91.8%
Second compound 0.0316 µM, first compound 0.001 µM
  viability, T/C: 104%
Second compound 0.0316 µM, first compound 0.00316 µM
  viability, T/C: 89.9%
Second compound 0.0316 µM, first compound 0.01 µM
  viability, T/C: 103%
[1]
  viability, T/C: 101%
[2]
  viability, T/C: 91.7%
Second compound 0.1 µM, first compound 0.000316 µM
  viability, T/C: 103%
Second compound 0.1 µM, first compound 0.001 µM
  viability, T/C: 88.9%
Second compound 0.1 µM, first compound 0.00316 µM
  viability, T/C: 86.6%
Second compound 0.1 µM, first compound 0.01 µM
  viability, T/C: 93.2%
[7]
  viability, T/C: 93.1%
[8]
  viability, T/C: 89.1%
Second compound 0.316 µM, first compound 0.000316 µM
  viability, T/C: 99.4%
Second compound 0.316 µM, first compound 0.001 µM
  viability, T/C: 112%
Second compound 0.316 µM, first compound 0.00316 µM
  viability, T/C: 90.2%
Second compound 0.316 µM, first compound 0.01 µM
  viability, T/C: 94.6%
[13]
  viability, T/C: 99.1%
[14]
  viability, T/C: 90%
Second compound 1 µM, first compound 0.000316 µM
  viability, T/C: 111%
Second compound 1 µM, first compound 0.001 µM
  viability, T/C: 105%
Second compound 1 µM, first compound 0.00316 µM
  viability, T/C: 104%
Second compound 1 µM, first compound 0.01 µM
  viability, T/C: 102%
[19]
  viability, T/C: 94.3%
[20]
  viability, T/C: 102%
Second compound 3.16 µM, first compound 0.000316 µM
  viability, T/C: 85.2%
Second compound 3.16 µM, first compound 0.001 µM
  viability, T/C: 106%
Second compound 3.16 µM, first compound 0.00316 µM
  viability, T/C: 103%
Second compound 3.16 µM, first compound 0.01 µM
  viability, T/C: 96.2%
[25]
  viability, T/C: 99.4%
[26]
  viability, T/C: 94.2%
Second compound 10 µM, first compound 0.000316 µM
  viability, T/C: 93.1%
Second compound 10 µM, first compound 0.001 µM
  viability, T/C: 122%
Second compound 10 µM, first compound 0.00316 µM
  viability, T/C: 87.8%
Second compound 10 µM, first compound 0.01 µM
  viability, T/C: 85.4%
[31]
  viability, T/C: 101%
[32]
  viability, T/C: 112%
